Data on 1 compound can be found in US20260325520A1, “METHODS FOR TREATING OR PREVENTING NEUROENDOCRINE TUMR FORMATION USING CDC7 INHIBITORS” (Memorial Sloan-Kettering Cancer Center, priority 2022, published 2026).

Holding throughout (type): cell-based
The subject of one assay is SCLC cell lines. The assay is described as follows: Growth inhibition of SCLC cell lines by CDC7 inhibitors, correlation with CDC7 mRNA and protein expression. The conditions noted are these: array of SCLC cell lines, Spearman's test. The text has this:
(§1) FIG. 1A: CDC7 mRNA expression in cell lines derived from different tumor types. The data was obtained from CCLE through UCSC Xenabrowser portal (https://xenabrowser.net/) in December 2020. Lines indicate the median CDC7 mRNA expression in SCLC cell lines. FIG. 1B: CDC7 protein expression assessed by IHC in NSCLC (N=58) and SCLC (N=45) clinical samples. Protein expression is shown as IHC score. H-score medians and standard deviation are shown. FIG. 1C: Western blot showing CDC7 KO in H82 (SCLC-N) and H146 (SCLC-A) SCLC cell lines. Proliferation (FIG. 1D) and soft agar colony formation (FIG. 1E) assays in isogenic H82 and H146 cell lines with CDC7 KO. In FIG. 1D, lower line graphs correspond to CDC7 KO (sgCDC7). FIG. 1F: Ectopic overexpression of CDC7 in H69 (SCLC-A) and DMS114 (SCLC-Y) SCLC cell lines. Proliferation (FIG. 1G) and soft agar colony formation (FIG. 1H) assays in isogenic H69 and DMS114 cell lines with ectopic CDC7 overexpression. […] FIG. 1I: Bivariate correlation of CDC7 mRNA and protein expression with simurosertib or LY3143921 sensitivity (assessed as growth inhibition) in an array of SCLC cell lines. Correlation was calculated with Spearman's test. […]
Cytotoxic assays were performed as described in ^19. […] Viability was assessed with the CellTiter-Glo 2.0 Assay (Promega, G9242) as indicated by manufacturer. […]

For assay [1], the system named is SCLC cell lines (control and CDC7 KO). Briefly: Viability of control and CDC7 CRISPR-Cas9 KO cell lines treated with simurosertib. The conditions noted are these: GI50 concentration.
Source text: as §1
Cytotoxic assays were performed as described in ^19. […] Viability was assessed with the CellTiter-Glo 2.0 Assay (Promega, G9242) as indicated by manufacturer.

The subject of another assay is Proteasome 20S. The assay is described as follows: Proteasome activity assay. The conditions noted are these: prostate transformation models (FIG. 6D). The text has this:
FIG. 6A: Pathway enrichment analyses on differentially expressed genes between the combo-and enzalutamide-treated tumors, collected at an intermediate time point in the for TP53/RB1-inactivated LnCap and 22PC experiments shown in FIG. 5. […] FIG. 6C: MYC mRNA levels in the tumors collected at endpoint in the prostate transformation models treated in FIG. 5A. FIG. 6D: Barplot showing proteasome activity in control and CDC7-inhibited (either pharmacologically by simurosertib, or genetically by CDC7 CRISPR KO) prostate transformation models. FIG. 6E: Western blots showing neuroendocrine marker expression in prostate models of transformation, when treated with enzalutamide, simurosertib or their combination. Specifically, for each treatment condition, isogenic control and MYC^T58A-expressing cells were analyzed.
Proteasome activity was measured with the Proteasome 20S Activity Assay Kit (#MAK172, Sigma), following the manufacturer's instructions.

As to `Cc1n[nH]cc1-c1cc2nc([C@@H]3CC4CCN3CC4)[nH]c(=O)c2s1` [simurosertib], in the assay on SCLC cell lines, the “sensitivity correlation with CDC7 mRNA and protein expression” value is “correlated with CDC7 mRNA and protein expression”. In addition, the “simurosertib sensitivity of CDC7 KO cells” value in assay [1] is “CDC7 KO rendered the cells resistant to simurosertib”. Also, the proteasome activity entry in the assay with Proteasome 20S was “induced proteasome activity”.
